Laboratory results reported in patent US20090118372A1, “Inhibitors Of Biotin Protein Ligase” (Adelaide Research & Innovation Pty Ltd., priority 2004, published 2009).
Values belong to the molecule of their own block, whether it stands above or below them.

Tests used:
C. albicans BPL = C. albicans BPL (Candida albicans, UniProt A0A1D8PUA1); experiment: biochemical; assay type: biochemical
Procedure: One hundred ng of biotin domain was coated onto each well of Griener Lumitrac 600 White 96-well plates (Stennick Scientific) with >95% of the peptide binding. Coating was performed overnight at 4° C. in 100 uL of Tris Buffered saline (TBS, pH 7.5). The sample was removed and wells blocked in 150 ul of a 1% BSA solution in TBS for 1 hr at 37° C. The blocking buffer was removed and wells washed five times in TBS buffer containing 0.1% Tween-20. Into each well 85 ul of the BPL reaction mix was added. The reaction for both C. albicans and human BPL are performed in 50 mM Tris-HCl pH 8.0, 100 uM ATP, 5.5 mM MgCl2, 0.1 mg/ml BSA, 10 uM biotin, 0.1 uM dithiothreitol.
Ten ul of either buffer alone or buffer containing inhibitor was added to the reaction mix and pre-equilibrated at 37° C. for 5 minutes. BPL reactions are initiated by the addition of 5 ul enzyme to a final concentration of 3.4 nM (1-5 nM). The reaction is allowed to proceed at 37° C. for 15 minutes at which point it is terminated by the addition of 5 ul 0.5 M EDTA (final concentration 25 mM). The reaction mix was discarded and wells washed five times in TBS-TD (TBS, 0.1% Tween-20 and 100 uM diethylenetriaminepentaacetic acid (DPTA)). The quantitative analysis of biotinylated protein formed in the reaction and coupled onto the well surface was determined using time resolved fluorescence. Fifty ul of Europium labelled streptavidin (Perkin-Elmer) solution, diluted to 0.1 ug/ml in TBS-TD, was added to each well. The plates were incubated at 37° C. for 1 hr before being washed five times in TBS-TD then three times in water. Fifty ul of DELFIA Enhancement solution (Perkin Elmer) was added and incubated for ten minutes at room temperature before quantitation. Quantitation was performed using a FLUOstar Galaxy plate reader (BMG Labtechnologies).
Each compound in the screening library was dissolved in 100% DMSO, added to the reactions to a final concentration of 10 μM or 50 μM and their effect on BPL activity measured. […] The inhibitory activity of the compounds was determined relative to the negative control reactions containing only DMSO.

human BPL [1] = biological target: T1, human BPL (Homo sapiens, UniProt P50747); experiment: In vitro biotinylation assay of human BPL (Example 9); assay type: biochemical
T1 construct: Vector pARA(hBPL-His6) was produced by cloning the full-length gene into Nco1/Hind111 treated pARA13; initiator Met (NcoI site) before Ala80 (N); made in house; host or cells: E. coli BL21(DE3)pLys, pET-16b vector
T1 sequence (P50747 80-726 limits assumed): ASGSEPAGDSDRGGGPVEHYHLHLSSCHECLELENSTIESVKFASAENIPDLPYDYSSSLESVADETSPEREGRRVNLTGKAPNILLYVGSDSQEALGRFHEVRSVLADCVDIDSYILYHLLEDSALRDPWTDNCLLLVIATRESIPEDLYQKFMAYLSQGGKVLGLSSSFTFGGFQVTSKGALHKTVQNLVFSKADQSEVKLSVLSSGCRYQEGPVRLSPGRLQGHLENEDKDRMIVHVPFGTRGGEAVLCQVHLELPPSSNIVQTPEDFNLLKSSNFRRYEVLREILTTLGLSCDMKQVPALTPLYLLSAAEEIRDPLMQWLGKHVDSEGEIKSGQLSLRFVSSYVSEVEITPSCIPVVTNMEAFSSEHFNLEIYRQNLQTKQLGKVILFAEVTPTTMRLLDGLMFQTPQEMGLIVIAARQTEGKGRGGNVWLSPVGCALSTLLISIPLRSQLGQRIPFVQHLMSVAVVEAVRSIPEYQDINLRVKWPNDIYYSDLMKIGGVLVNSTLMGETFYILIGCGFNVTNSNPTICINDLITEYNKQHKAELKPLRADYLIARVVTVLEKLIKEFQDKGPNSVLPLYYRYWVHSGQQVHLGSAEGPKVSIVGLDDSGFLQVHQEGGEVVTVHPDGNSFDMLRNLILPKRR
Procedure: (§1) One hundred ng of biotin domain was coated onto each well of Griener Lumitrac 600 White 96-well plates (Stennick Scientific) with >95% of the peptide binding. Coating was performed overnight at 4° C. in 100 uL of Tris Buffered saline (TBS, pH 7.5). The sample was removed and wells blocked in 150 ul of a 1% BSA solution in TBS for 1 hr at 37° C. The blocking buffer was removed and wells washed five times in TBS buffer containing 0.1% Tween-20. Into each well 85 ul of the BPL reaction mix was added. The reaction for both C. albicans and human BPL are performed in 50 mM Tris-HCl pH 8.0, 100 uM ATP, 5.5 mM MgCl2, 0.1 mg/ml BSA, 10 uM biotin, […].
Ten ul of either buffer alone or buffer containing inhibitor was added to the reaction mix and pre-equilibrated at 37° C. for 5 minutes. […] The quantitative analysis of biotinylated protein formed in the reaction and coupled onto the well surface was determined using time resolved fluorescence. […] Fifty ul of DELFIA Enhancement solution (Perkin Elmer) was added and incubated for ten minutes at room temperature before quantitation. Quantitation was performed using a FLUOstar Galaxy plate reader (BMG Labtechnologies). […]
(§2) The activity of BPL from Escherichia coli, Staphylococcus aureus, Saccharomyces cerevisiae and Homo sapiens was measured using an in vitro biotinylation assay in the presence of increasing concentrations of Compounds 2 to 5.

[2] = biological target: T2, Saccharomyces cerevisiae BPL (Saccharomyces cerevisiae, UniProt P48445); experiment: In vitro biotinylation assay of S. cerevisiae BPL; assay type: biochemical
T2 sequence (P48445 1-690): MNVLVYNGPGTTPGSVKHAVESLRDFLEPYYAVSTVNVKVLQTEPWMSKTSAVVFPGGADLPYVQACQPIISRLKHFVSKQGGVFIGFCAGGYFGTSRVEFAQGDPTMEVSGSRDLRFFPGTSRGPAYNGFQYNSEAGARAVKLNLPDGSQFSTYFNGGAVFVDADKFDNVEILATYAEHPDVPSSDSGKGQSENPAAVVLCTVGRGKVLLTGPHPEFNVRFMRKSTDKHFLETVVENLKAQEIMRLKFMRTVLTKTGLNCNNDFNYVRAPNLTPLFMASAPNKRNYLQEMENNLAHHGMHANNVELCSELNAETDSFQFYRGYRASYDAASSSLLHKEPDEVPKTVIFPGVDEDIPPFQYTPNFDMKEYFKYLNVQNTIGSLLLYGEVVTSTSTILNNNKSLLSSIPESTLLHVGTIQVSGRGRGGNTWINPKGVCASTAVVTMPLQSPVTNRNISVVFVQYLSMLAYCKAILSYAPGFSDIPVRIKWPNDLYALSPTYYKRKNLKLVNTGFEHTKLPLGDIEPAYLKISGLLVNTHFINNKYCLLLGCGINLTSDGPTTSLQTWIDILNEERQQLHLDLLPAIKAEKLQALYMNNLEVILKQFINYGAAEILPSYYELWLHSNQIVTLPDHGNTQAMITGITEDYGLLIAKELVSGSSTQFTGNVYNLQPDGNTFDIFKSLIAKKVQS
Procedure: as §1
Ten ul of either buffer alone or buffer containing inhibitor was added to the reaction mix and pre-equilibrated at 37° C. for 5 minutes. […] The quantitative analysis of biotinylated protein formed in the reaction and coupled onto the well surface was determined using time resolved fluorescence. […] Fifty ul of DELFIA Enhancement solution (Perkin Elmer) was added and incubated for ten minutes at room temperature before quantitation. Quantitation was performed using a FLUOstar Galaxy plate reader (BMG Labtechnologies).
as §2

[3] = biological target: T3, Staphylococcus aureus BPL (UniProt A0A3A5LBF0); experiment: In vitro biotinylation assay of S. aureus BPL; assay type: biochemical
T3 sequence (A0A3A5LBF0 1-323): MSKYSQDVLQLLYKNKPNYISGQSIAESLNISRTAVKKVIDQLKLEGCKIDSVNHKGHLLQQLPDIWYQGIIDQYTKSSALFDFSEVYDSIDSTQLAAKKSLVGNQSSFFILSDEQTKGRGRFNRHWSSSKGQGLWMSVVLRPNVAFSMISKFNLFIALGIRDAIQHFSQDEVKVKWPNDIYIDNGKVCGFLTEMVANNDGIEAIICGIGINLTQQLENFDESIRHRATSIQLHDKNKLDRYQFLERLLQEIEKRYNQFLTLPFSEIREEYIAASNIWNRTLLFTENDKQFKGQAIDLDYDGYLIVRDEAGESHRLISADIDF
Procedure: (§3) Purified hPC-108 was analysed in an in vitro biotinylation assay using recombinant human BPL as follows: BPL activity was assayed by measuring the incorporation of [^3H]biotin into biotin domain. The reactions contained 50 mM Tris-HCl, pH 8.0, 3 mM ATP, 5.5 mM MgCl2, 50 mM KCl, 5 uM biotin, 5 pmol [^3H]biotin (specific activity 35-44 Ci/mmol) 0.1 mM dithiothreitol, 0.1 mg/ml BSA and varying concentrations of hPC-108. The reaction was initiated by addition of purified […] BPL to a final concentration of 13 nM and incubated at 37° C. for up to 30 minutes when aliquots of the reaction were spotted onto biotin- and trichloroacetic acid-treated filters. After air-drying, the filters were washed twice in 10% ice cold trichloroacetic acid and once in ethanol, dried and the acid insoluble radioactivity measured. Values for Km and Vmax were determined by fitting a plot of substrate concentration against rate to the Michaelis-Menten equation using GraphPad Prism for MacIntosh (GraphPad Software Inc, San Diego, Calif.).
as §2

Escherichia coli BPL = biological target: T4, Escherichia coli BPL (Escherichia coli, UniProt P06709); experiment: In vitro biotinylation assay of E. coli BPL; assay type: biochemical
T4 construct: the plasmid pHBA, which contains the entire coding region for E. coli BirA; made in house; host or cells: E. coli BL21(DE3), plasmid pHBA (pET-16b)
Procedure: as §3, §2

Staphylococcus aureus = experiment: Antibiotic activity against Staphylococcus aureus on solid media and in liquid culture; assay type: cell-based; details: L-agar, filter disc soaked in 100 μM, overnight 37° C.
Procedure: The antibacterial properties of Compound 2 were assessed against Staphylococcus aureus grown on both solid media (A-C) and in liquid culture (D). Log phase culture was plated onto L-agar and filter discs soaked in A) DMSO (vehicle control), B) 100 μM ampicillin or C) 100 μM compound #2. A single filter was placed in the centre of a bacterial plate before being placed at 37° C. overnight. The clear zone surrounding the disc in B & C represents sensitivity of S. aureus to the treatment. D) This sensitivity was quantitated in liquid culture by seeding 10^4 cells in a 96 well plate followed by overnight growth at 37° C. The growth of the culture was measured by absorbance at 600 nm.

[4] = test system: T5, hPC-108, biotin domain of human pyruvate carboxylase (C-terminal 108 amino acids), cleaved from GST
T5 sequence: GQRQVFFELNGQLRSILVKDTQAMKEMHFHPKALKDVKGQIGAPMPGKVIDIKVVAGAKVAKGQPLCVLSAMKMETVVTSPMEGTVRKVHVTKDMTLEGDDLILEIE

human BPL [5] = biological target: T1, human BPL; experiment: Kinetic analysis of biotinylation of hPC-108, [3H]biotin incorporation assay; assay type: biochemical; details: varying concentrations of hPC-108; read-out: KM of human BPL for the biotin domain
Procedure: as §3

Chain of C. albicans BPL (A0A1D8PUA1 entry or part of it): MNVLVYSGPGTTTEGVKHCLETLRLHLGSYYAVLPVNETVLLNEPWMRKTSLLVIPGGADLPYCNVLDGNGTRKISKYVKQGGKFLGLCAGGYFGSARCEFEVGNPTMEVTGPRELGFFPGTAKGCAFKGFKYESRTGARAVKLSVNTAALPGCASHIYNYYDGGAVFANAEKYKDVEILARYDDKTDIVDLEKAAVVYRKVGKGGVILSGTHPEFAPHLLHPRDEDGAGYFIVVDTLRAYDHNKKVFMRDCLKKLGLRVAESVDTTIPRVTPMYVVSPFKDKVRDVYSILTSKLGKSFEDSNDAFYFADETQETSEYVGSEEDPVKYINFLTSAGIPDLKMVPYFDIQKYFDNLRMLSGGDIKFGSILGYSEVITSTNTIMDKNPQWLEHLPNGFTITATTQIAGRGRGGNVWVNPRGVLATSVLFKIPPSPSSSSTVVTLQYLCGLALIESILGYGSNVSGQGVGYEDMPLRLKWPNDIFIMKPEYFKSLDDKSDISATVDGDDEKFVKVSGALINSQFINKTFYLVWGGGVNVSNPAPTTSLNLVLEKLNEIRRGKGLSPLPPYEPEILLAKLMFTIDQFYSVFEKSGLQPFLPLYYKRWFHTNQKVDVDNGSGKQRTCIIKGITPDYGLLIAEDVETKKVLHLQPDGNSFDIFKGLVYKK
T4 sequence (P06709 whole entry): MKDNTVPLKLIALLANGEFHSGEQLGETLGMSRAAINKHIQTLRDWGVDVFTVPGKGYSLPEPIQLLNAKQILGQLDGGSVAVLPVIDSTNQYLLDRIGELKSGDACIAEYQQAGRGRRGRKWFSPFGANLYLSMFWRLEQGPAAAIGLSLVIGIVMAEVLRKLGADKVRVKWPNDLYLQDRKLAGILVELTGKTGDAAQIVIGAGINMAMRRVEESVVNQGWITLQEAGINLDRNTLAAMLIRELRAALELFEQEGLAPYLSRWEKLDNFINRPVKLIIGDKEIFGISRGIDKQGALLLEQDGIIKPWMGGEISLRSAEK

- Inhibition of the Candida BPL reaction (in words) (C. albicans BPL): potent inhibitors
- IC50 (C. albicans BPL; concentration response curve, read-out: IC50, inhibition of Candida BPL activity): 1 ± 0.2 µM
- Inhibition of the human BPL reaction (in words) (human BPL [1]): inhibitor
Molecule: Nc1ncnc2c1ncn2C1OC(COP(=O)(O)OCCCCCC2SCC3NC(=O)NC32)C(O)C1O (stereo not drawn) [BtnOH-AMP, biotinol-adenylate]

Molecule: C=CCC(Cc1cc(OC)cc(OC)c1)(C(=O)O)C(=O)O [Compound 4, 2-allyl-2-(3,5-dimethoxybenzyl)malonic acid]
- IC50 (human BPL [1]): > 50 µM
- IC50 [2]: > 50 µM
- IC50 [3]: 2.7 µM
- IC50 (Escherichia coli BPL): 0.0009 µM

Molecule: CC1(C)S[C@@H]2[C@H](NC(=O)[C@H](N)c3ccccc3)C(=O)N2[C@H]1C(=O)O [ampicillin]
- Sensitivity of S. aureus on solid media (filter disc) (Staphylococcus aureus): clear zone

Molecule: O=P(O)(O)OP(=O)(O)O [pyrophosphate]
- Inhibition of the Candida BPL reaction (in words) (C. albicans BPL): potent inhibitors
- Inhibition of the Candida BPL reaction by pyrophosphate (C. albicans BPL; in the range of 50 uM to 1 mM): strongly inhibited

Molecule: recombinant human biotin protein ligase [Met1-Ala80]hBPL-His6
- KM (in vitro [3H]biotin incorporation assay, Michaelis-Menten fit) [4]: 1.0 ± 0.2 µM

B1: hPC-108: polypeptide of the C-terminal 108 amino acids (biotin domain) of human pyruvate carboxylase, BPL substrate (protein)
chain: GQRQVFFELNGQLRSILVKDTQAMKEMHFHPKALKDVKGQIGAPMPGKVIDIKVVAGAKVAKGQPLCVLSAMKMETVVTSPMEGTVRKVHVTKDMTLEGDDLILEIE
- Km (human BPL [5]): 1 ± 0.2 µM
